Patent US9133158B2, “Bicyclic dihydroisoquinoline-1-one derivatives” (Hoffmann-La Roche Inc., priority 2011, dated 2015)

How the values were obtained:
human CYP11B2 = molecular target: T1, human CYP11B2 (Homo sapiens, UniProt P19099); assay: G-402 cellular enzyme assay, human CYP11B2 (aldosterone release, HTRF); type: cell-based; settings: G-402 cells, 1 μM Deoxycorticosterone
T1 construct: expressed in transfected cells
T1 sequence (P19099 25-503): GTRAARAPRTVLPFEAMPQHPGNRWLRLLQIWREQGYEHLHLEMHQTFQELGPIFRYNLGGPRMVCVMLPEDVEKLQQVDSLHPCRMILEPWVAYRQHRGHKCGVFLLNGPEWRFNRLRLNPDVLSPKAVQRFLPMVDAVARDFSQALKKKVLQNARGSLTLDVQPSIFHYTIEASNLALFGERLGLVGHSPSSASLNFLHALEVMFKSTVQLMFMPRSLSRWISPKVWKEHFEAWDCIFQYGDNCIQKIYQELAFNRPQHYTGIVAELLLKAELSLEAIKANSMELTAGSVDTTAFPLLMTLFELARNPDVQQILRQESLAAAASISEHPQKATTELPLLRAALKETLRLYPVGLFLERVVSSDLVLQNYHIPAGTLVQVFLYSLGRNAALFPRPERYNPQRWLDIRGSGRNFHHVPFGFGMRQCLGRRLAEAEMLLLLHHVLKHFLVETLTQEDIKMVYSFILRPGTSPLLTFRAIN
Procedure, shortened: (§1)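 Steroid output from supernatants, quantified by HTRF as cortisol for CYP11B1 or aldosterone for CYP11B2, gave EC50 values by least-squares 4-parameter MMF fitting against inhibitor concentration. Stably transfected G-402 cells carrying the human enzyme received 1 μM deoxycortisol or 1 μM deoxycorticosterone respectively, 16 h, DMEM/F12 with 2.5% charcoal-stripped FCS.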

human CYP11B1 = molecular target: T2, human CYP11B1 (Homo sapiens, UniProt P15538); assay: G-402 cellular enzyme assay, human CYP11B1 (cortisol release, HTRF); type: cell-based; settings: G-402 cells, 1 μM Deoxycortisol
T2 construct: expressed in transfected cells
T2 sequence (P15538 25-503): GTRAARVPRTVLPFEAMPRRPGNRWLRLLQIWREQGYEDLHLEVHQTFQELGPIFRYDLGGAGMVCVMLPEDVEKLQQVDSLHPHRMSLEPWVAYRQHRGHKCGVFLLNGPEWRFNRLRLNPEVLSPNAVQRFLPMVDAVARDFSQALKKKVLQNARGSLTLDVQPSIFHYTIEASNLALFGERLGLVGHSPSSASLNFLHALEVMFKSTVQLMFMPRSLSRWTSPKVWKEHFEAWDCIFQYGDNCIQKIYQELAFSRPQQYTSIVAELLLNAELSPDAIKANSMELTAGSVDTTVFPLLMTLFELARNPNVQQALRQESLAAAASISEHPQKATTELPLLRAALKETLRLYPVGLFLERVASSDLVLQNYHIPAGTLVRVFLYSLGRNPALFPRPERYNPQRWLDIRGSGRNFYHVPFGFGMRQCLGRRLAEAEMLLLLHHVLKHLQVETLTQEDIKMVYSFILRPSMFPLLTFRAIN
Procedure, shortened: as §1

Cc1ccn(Cc2cncc(N3CCc4cc(Cl)ccc4C3=O)c2)n1 [Example 190, 6-Chloro-2-[5-(3-methyl-pyrazol-1-ylmethyl)-pyridin-3-yl]-3,4-dihydro-2H-isoquinolin-1-one]
EC50 (human CYP11B2): 328 nM | EC50 (human CYP11B1): 7320 nM

CCc1nccn1Cc1cncc(N2CCc3cc(Cl)ccc3C2=O)c1 [Example 191, 6-Chloro-2-[5-(2-ethyl-imidazol-1-ylmethyl)-pyridin-3-yl]-3,4-dihydro-2H-isoquinolin-1-one]
EC50 (human CYP11B2): 394 nM | EC50 (human CYP11B1): 8550 nM

NCc1cncc(N2CCc3cc(Cl)ccc3C2=O)c1 [Example 192, 2-(5-Aminomethyl-pyridin-3-yl)-6-chloro-3,4-dihydro-2H-isoquinolin-1-one]
EC50 (human CYP11B2): 2200 nM | EC50 (human CYP11B1): 10300 nM

COCc1cncc(N2CCc3cc(Cl)ccc3C2=O)c1 [Example 193, 6-Chloro-2-(5-methoxymethyl-pyridin-3-yl)-3,4-dihydro-2H-isoquinolin-1-one]
EC50 (human CYP11B2): 20.1 nM | EC50 (human CYP11B1): 217 nM

CC(C)OCc1cncc(N2CCc3cc(Cl)ccc3C2=O)c1 [Example 194, 6-Chloro-2-(5-isopropoxymethyl-pyridin-3-yl)-3,4-dihydro-2H-isoquinolin-1-one]
EC50 (human CYP11B2): 20.3 nM | EC50 (human CYP11B1): 224 nM

CC(OCc1cncc(N2CCc3cc(Cl)ccc3C2=O)c1)C(F)(F)F (centres unmarked) [Example 195, 6-Chloro-2-[5-(2,2,2-trifluoro-1-methyl-ethoxymethyl)-pyridin-3-yl]-3,4-dihydro-2H-isoquinolin-1-one]
EC50 (human CYP11B2): 37.3 nM | EC50 (human CYP11B1): 486 nM

CN1CCCC1CCOCc1cncc(N2CCc3cc(Cl)ccc3C2=O)c1 (centres unmarked) [Example 196, 6-Chloro-2-{5-[2-(1-methyl-pyrrolidin-2-yl)-ethoxymethyl]-pyridin-3-yl}-3,4-dihydro-2H-isoquinolin-1-one]
EC50 (human CYP11B2): 178 nM | EC50 (human CYP11B1): 1030 nM

O=C1c2ccc(Cl)cc2CCN1c1cncc(COC2CCCC2)c1 [Example 197, 6-Chloro-2-(5-cyclopentyloxymethyl-pyridin-3-yl)-3,4-dihydro-2H-isoquinolin-1-one]
EC50 (human CYP11B2): 46.8 nM | EC50 (human CYP11B1): 555 nM

O=C1c2ccc(Cl)cc2CCN1c1cncc(COCC2CC2)c1 [Example 198, 6-Chloro-2-(5-cyclopropylmethoxymethyl-pyridin-3-yl)-3,4-dihydro-2H-isoquinolin-1-one]
EC50 (human CYP11B2): 2450 nM | EC50 (human CYP11B1): 990 nM

O=C1c2ccc(Cl)cc2CCN1c1cncc(COc2ccccc2F)c1 [Example 199, 6-Chloro-2-[5-(2-fluoro-phenoxymethyl)-pyridin-3-yl]-3,4-dihydro-2H-isoquinolin-1-one]
EC50 (human CYP11B2): 104 nM | EC50 (human CYP11B1): 282 nM

CC1(COCc2cncc(N3CCc4cc(Cl)ccc4C3=O)c2)CC1 [Example 200, 6-Chloro-2-[5-(1-methyl-cyclopropylmethoxymethyl)-pyridin-3-yl]-3,4-dihydro-2H-isoquinolin-1-one]
EC50 (human CYP11B2): 32.5 nM | EC50 (human CYP11B1): 315 nM

O=C1c2ccc(Cl)cc2CCN1c1cncc(COCC2CCCO2)c1 (centres unmarked) [Example 201, 6-Chloro-2-[5-(tetrahydro-furan-2-ylmethoxymethyl)-pyridin-3-yl]-3,4-dihydro-2H-isoquinolin-1-one]
EC50 (human CYP11B2): 30.4 nM | EC50 (human CYP11B1): 293 nM

O=C1c2ccc(Cl)cc2CCN1c1cncc(COCC(F)(F)F)c1 [Example 202, 6-Chloro-2-[5-(2,2,2-trifluoro-ethoxymethyl)-pyridin-3-yl]-3,4-dihydro-2H-isoquinolin-1-one]
EC50 (human CYP11B2): 65.3 nM | EC50 (human CYP11B1): 473 nM

O=C1c2ccc(Cl)cc2CCN1c1cncc(COC2CCC2)c1 [Example 203, 6-Chloro-2-(5-cyclobutoxymethyl-pyridin-3-yl)-3,4-dihydro-2H-isoquinolin-1-one]
EC50 (human CYP11B2): 22.4 nM | EC50 (human CYP11B1): 212 nM

Cc1noc(C)c1Cc1cncc(N2CCc3cc(Cl)ccc3C2=O)c1 [Example 204, 6-Chloro-2-[5-(3,5-dimethyl-isoxazol-4-ylmethyl)-pyridin-3-yl]-3,4-dihydro-2H-isoquinolin-1-one]
EC50 (human CYP11B2): 40.8 nM | EC50 (human CYP11B1): 900 nM

CS(=O)(=O)c1ccc(Cc2cncc(N3CCc4cc(Cl)ccc4C3=O)c2)cc1 [Example 205, 6-Chloro-2-[5-(4-methanesulfonyl-benzyl)-pyridin-3-yl]-3,4-dihydro-2H-isoquinolin-1-one]
EC50 (human CYP11B2): 0.5 nM | EC50 (human CYP11B1): 0.6 nM

Cc1ccc(Cc2cncc(N3CCc4cc(Cl)ccc4C3=O)c2)cn1 [Example 206, 6-Chloro-2-[5-(6-methyl-pyridin-3-ylmethyl)-pyridin-3-yl]-3,4-dihydro-2H-isoquinolin-1-one]
EC50 (human CYP11B2): 1.7 nM | EC50 (human CYP11B1): 6.8 nM

O=C1c2ccc(Cl)cc2CCN1c1cncc(Cc2ccc(N3CCOCC3)nc2)c1 [Example 207, 6-Chloro-2-[5-(6-morpholin-4-yl-pyridin-3-ylmethyl)-pyridin-3-yl]-3,4-dihydro-2H-isoquinolin-1-one]
EC50 (human CYP11B2): 2.8 nM | EC50 (human CYP11B1): 18.2 nM

Cn1nccc1Cc1cncc(N2CCc3cc(Cl)ccc3C2=O)c1 [Example 208, 6-Chloro-2-[5-(2-methyl-2H-pyrazol-3-ylmethyl)-pyridin-3-yl]-3,4-dihydro-2H-isoquinolin-1-one]
EC50 (human CYP11B2): 2.1 nM | EC50 (human CYP11B1): 18.9 nM

Cn1cc(Cc2cncc(N3CCc4cc(Cl)ccc4C3=O)c2)cn1 [Example 209, 6-Chloro-2-[5-(1-methyl-1H-pyrazol-4-ylmethyl)-pyridin-3-yl]-3,4-dihydro-2H-isoquinolin-1-one]
EC50 (human CYP11B2): 0.9 nM | EC50 (human CYP11B1): 14.7 nM

O=C1c2ccc(Cl)cc2CCN1c1cncc(Cc2cccc(F)c2F)c1 [Example 210]
EC50 (human CYP11B2): 18.6 nM | EC50 (human CYP11B1): 130 nM

O=C1c2ccc(Cl)cc2CCN1c1cncc(Cc2cc(F)cc(F)c2)c1 [Example 211, 6-Chloro-2-[5-(3,5-difluoro-benzyl)-pyridin-3-yl]-3,4-dihydro-2H-isoquinolin-1-one]
EC50 (human CYP11B2): 4.4 nM | EC50 (human CYP11B1): 53.2 nM

O=C1c2ccc(Cl)cc2CCN1c1cncc(Cc2cc(F)ccc2F)c1 [Example 212, 6-Chloro-2-[5-(2,5-difluoro-benzyl)-pyridin-3-yl]-3,4-dihydro-2H-isoquinolin-1-one]
EC50 (human CYP11B2): 8.4 nM | EC50 (human CYP11B1): 81.6 nM

O=C1c2ccc(Cl)cc2CCN1c1cncc(Cc2ccccc2C(F)(F)F)c1 [Example 213, 6-Chloro-2-[5-(2-trifluoromethyl-benzyl)-pyridin-3-yl]-3,4-dihydro-2H-isoquinolin-1-one]
EC50 (human CYP11B2): 39.1 nM | EC50 (human CYP11B1): 278 nM

O=C1c2ccc(Cl)cc2CCN1c1cncc(Cc2c(Cl)cccc2Cl)c1 [Example 214, 6-Chloro-2-[5-(2,6-dichloro-benzyl)-pyridin-3-yl]-3,4-dihydro-2H-isoquinolin-1-one]
EC50 (human CYP11B2): 63.6 nM | EC50 (human CYP11B1): 300 nM

O=C1c2ccc(Cl)cc2CCN1c1cncc(Cc2c(F)cccc2Cl)c1 [Example 215, 6-Chloro-2-[5-(2-chloro-6-fluoro-benzyl)-pyridin-3-yl]-3,4-dihydro-2H-isoquinolin-1-one]
EC50 (human CYP11B2): 29.6 nM | EC50 (human CYP11B1): 137 nM

O=C1c2ccc(Cl)cc2CCN1c1cncc(Cc2ccc(Cl)c(Cl)c2)c1 [Example 216, 6-Chloro-2-[5-(3,4-dichloro-benzyl)-pyridin-3-yl]-3,4-dihydro-2H-isoquinolin-1-one]
EC50 (human CYP11B2): 38.1 nM | EC50 (human CYP11B1): 364 nM

O=C1c2ccc(Cl)cc2CCN1c1cncc(Cc2cc(Cl)ccc2Cl)c1 [Example 217, 6-Chloro-2-[5-(2,5-dichloro-benzyl)-pyridin-3-yl]-3,4-dihydro-2H-isoquinolin-1-one]
EC50 (human CYP11B2): 92 nM | EC50 (human CYP11B1): 803 nM
